Experimental data: US6194169A, “Enhanced expression of human platelet-derived growth factor in Pichia pastoris” (The University of Kentucky Research Foundation, priority 1998, dated 2001)

Tests used:
[1] = system: human glioblastoma (U87) cells; assay: Tumor growth of stably transfected U87 cells in athymic nude mice; assay type: in vivo; conditions: 10^7 transfected U87 cells s.c. in athymic nude mice
Protocol: Transfections and stable expression in the human glioblastoma cell line U87 were performed using a liposomal reagent (Lipofectin™) (Gibco/BRL; Gaithersburg, Md.), as described. Cells were cultured in 162 cm^2 flasks in complete DMEM. On the day of injection, cells were removed by trypsinization, rinsed twice with Hanks balanced salt solution (HBSS, without phenol red; Gibco/BRL), and resuspended in 300 μL HBSS. Cells (10^7) from exponentially growing cultures of stable U87 transfectants were injected subcutaneously between the scapulae of 9-week-old athymic nude mice (Harlan Sprague-Dawley, nu/nu) using a 1 cc tuberculin syringe equipped with a 23-gauge needle. Two-dimensional measurements of tumors were obtained with vernier calipers.

[2] = PDGF-BB expressed in Saccharomyces cerevisiae, Craig et al. (1992); cited from earlier work
PDGF α-receptor [3] = assay: Radioreceptor assay (RRA), competition with [125I]PDGF-BB in A204 cells; assay type: binding; conditions: A204 cells (α isotype only); [125I]PDGF-BB radioligand; Pichia-expressed protein; ALLFIT fit
Protocol: (§1) Radioreceptor assays were conducted in A204 and rat mesangial cells (RMC, R52 line) as described previously using 20,000 cpm of [^125 I]PDGF-BB (1200 Ci/mmol; Amersham, Buckinghamshire, England) as radioligand and unlabeled recombinant PDGF-BB proteins as competitor. Mitogenic activities of recombinant PDGF-BB proteins were determined by measuring [^3 H]thymidine incorporation into cells as described.

NR6 cells = assay: Mitogenesis, [3H]thymidine incorporation in NR6 cells; assay type: cell-based; conditions: NR6 cells (primarily α-receptors), ALLFIT fit
Protocol: as §1

[4] = Heparin-agarose in vitro batch binding assay; conditions: 200 mM NaCl, 40 mM Hepes pH 7.4; 3 μg protein; bound fraction by ELISA
Protocol: Mixtures containing 300 μL of a 50:50 slurry of heparin-agarose in 200 mM NaCl, 40 mM Hepes, pH 7.4 were incubated with 3 μg of PDGF-BB proteins for 15 min at 23° C. Supernatants were obtained by microcentrifugation and collected with a 23 G needle. Pellets were washed with 300 μL of buffer, which was combined with the first supernatant ("unbound" PDGF). Pellets were then washed twice with 150 μL of buffer containing 1 M NaCl, and supernatants were pooled (high salt wash fraction, or "bound" PDGF). PDGF-BB content of bound and unbound fractions were determined by ELISA.

PDGF β-receptor [5] = assay: Radioreceptor assay (RRA), competition with [125I]PDGF-BB in R52 rat mesangial cells; assay type: binding; conditions: R52 cells (β isotype); [125I]PDGF-BB radioligand; Pichia-expressed protein; ALLFIT fit
Protocol: as §1

PDGF β-receptor [6] = assay: In vitro PDGF receptor autophosphorylation in R52 cells; assay type: cell-based, rat; conditions: 170 kDa PDGF receptor species
Protocol: In vitro assays of PDGF receptor autophosphorylation were conducted essentially as described. A204 and R52 cells (obtained from the American Type Culture Collection (ATCC) were grown to near confluence on 100-mm plastic dishes and maintained in low mitogenicity medium for 24 h. Cells were pre-chilled at 4° C. for 60 min and then incubated with PDGF-BB preparations for 10 min at 4° C. Cell lysates were incubated with either anti-PDGFRα or anti-PDGFRβ IgG (Santa Cruz Biotechnologies) for 60 min at 4° C., centrifuged for 10 min and incubated in fresh tubes containing protein A-agarose (Sigma) for 60 min at 4° C. Kinase assays were performed in 25 μL kinase buffer (20 mM Tris HCl, 1 mM DTT, 10 mM MnCl2, pH 7.5) and 5 μCi [γ-^32 P] ATP (3000 Ci/mmol) for 10 min at 30° C. Immunoprecipitates were analyzed by SDS-PAGE (6% polyacrylamide).

PDGF α-receptor [7] = assay: In vitro PDGF receptor autophosphorylation in A204 cells; assay type: cell-based; conditions: 170 kDa PDGF receptor species
Protocol: In vitro assays of PDGF receptor autophosphorylation were conducted essentially as described. […] ATP (3000 Ci/mmol) for 10 min at 30° C. Immunoprecipitates were analyzed by SDS-PAGE (6% polyacrylamide).

Row | Substance | effect of overexpression on U87 tumor growth in vivo vs Neo controls (in words) [1] | Structure (%) Beta [2] [%] | Structure (%) Helix [2] [%] | Structure (%) Random [2] [%] | RRA: IC50 α (PDGF α-receptor [3]) [ng/mL] | Mitogenesis ED50 (NR6 cells) [ng/mL] | heparin-binding, protein in the bound fraction [4] [%] | RRA: IC50 β (PDGF β-receptor [5]) [ng/mL] | induction of β-receptor autophosphorylation (in words) (PDGF β-receptor [6]) | induction of α-receptor autophosphorylation (in words) (PDGF α-receptor [7])
1 | A-WT-RKK: wild-type PDGF A-chain overexpressed from cDNA in stably transfected U87 cells | not significantly different | – | – | – | – | – | – | – | – | –
2 | PDGF-BB: wild-type human PDGF-BB expressed in Saccharomyces cerevisiae, CD data as reported by Craig et al. (1992) | – | 51.0 | 4.0 | 45.0 | – | – | – | – | – | –
3 | WT-RKK: human PDGF B-chain (PDGF-BB homodimer) with wild-type loop III residues Arg Lys Lys (RKK) | not significantly different | – | – | – | 9.2 | 52 | ~100 | 4.0 | dose-dependent autophosphorylation | dose-dependent autophosphorylation
